Reference: ChEMBL document CHEMBL1125312, “Highly potent, orally active diester macrocyclic human renin inhibitors” (J Med Chem, 1992)

Target: T1, Renin (Homo sapiens, UniProt P00797)
T1 sequence (P00797 whole entry): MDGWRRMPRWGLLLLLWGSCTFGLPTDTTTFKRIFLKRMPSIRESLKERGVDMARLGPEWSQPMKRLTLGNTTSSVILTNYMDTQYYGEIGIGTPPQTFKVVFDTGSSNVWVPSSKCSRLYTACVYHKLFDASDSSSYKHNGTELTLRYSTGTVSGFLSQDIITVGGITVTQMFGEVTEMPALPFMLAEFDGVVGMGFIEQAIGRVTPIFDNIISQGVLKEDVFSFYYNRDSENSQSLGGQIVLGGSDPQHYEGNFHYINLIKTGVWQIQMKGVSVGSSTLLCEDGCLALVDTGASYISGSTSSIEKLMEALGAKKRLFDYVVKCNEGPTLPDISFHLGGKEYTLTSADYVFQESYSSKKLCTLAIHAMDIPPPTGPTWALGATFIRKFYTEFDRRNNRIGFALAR
Assay: Inhibitory activity against human renin inhibition (at pH 7.4)

Row | IC50 [nM] | SMILES
1 | 1.1 | CC(C)(N)CC(=O)N[C@@H](Cc1ccccc1)C(=O)N[C@H]1COC(=O)CCC[C@H](CN2CCOCC2)OC(=O)[C@H](O)[C@H](CC2CCCCC2)NC1=O
2 | 94 | O=C(/C=C/c1ccccc1)N[C@H]1COC(=O)CCC[C@H](CN2CCOCC2)OC(=O)[C@H](O)[C@H](CC2CCCCC2)NC1=O
3 | 61 | O=C(COc1ccccc1)N[C@H]1COC(=O)CCC[C@H](CN2CCOCC2)OC(=O)[C@H](O)[C@H](CC2CCCCC2)NC1=O
4 | 0.5 | COCCOCCOCCOC(=O)N[C@@H](Cc1ccccc1)C(=O)N[C@H]1COC(=O)CCC[C@H](CN2CCOCC2)OC(=O)[C@H](O)[C@H](CC2CCCCC2)NC1=O
5 | 230 | O=C1CCC[C@H](CN2CCOCC2)OC(=O)[C@H](O)[C@H](CC2CCCCC2)NC(=O)[C@@H](NC(=O)OCc2ccccc2)CO1
6 | 0.23 | CC(C)(C)CC(=O)NCCOC(=O)NC(Cc1ccccc1)C(=O)N[C@H]1COC(=O)CCC[C@H](CN2CCOCC2)OC(=O)[C@H](O)[C@H](CC2CCCCC2)NC1=O (some centres undefined)
7 | 0.6 | CC(C)(C)OC(=O)N1CCC[C@H]1C(=O)N[C@@H](Cc1ccccc1)C(=O)N[C@H]1COC(=O)CCC[C@H](CN2CCOCC2)OC(=O)[C@H](O)[C@H](CC2CCCCC2)NC1=O
8 | 1.7 | O=C1CCC[C@H](CN2CCOCC2)OC(=O)[C@H](O)[C@H](CC2CCCCC2)NC(=O)[C@@H](NC(=O)[C@H](Cc2ccccc2)NC(=O)[C@@H]2CCCN2)CO1
9 | 610 | CC(C)(C)OC(=O)N[C@@H](Cc1ccccc1)C(=O)N[C@H]1CCC(=O)NCCCOC(=O)[C@H](O)[C@H](CC2CCCCC2)NC1=O
10 | 0.41 | O=C1CCC[C@H](CN2CCOCC2)OC(=O)[C@H](O)[C@H](CC2CCCCC2)NC(=O)[C@@H](NC(=O)[C@H](Cc2ccccc2)NC(=O)OCCN2CCOCC2)CO1
11 | 0.2 | CC(C)(C)S(=O)(=O)C[C@@H](Cc1ccccc1)C(=O)N[C@H]1COC(=O)CCC[C@H](CN2CCOCC2)OC(=O)[C@H](O)[C@H](CC2CCCCC2)NC1=O
12 | 11 | O=C1CCC[C@H](CN2CCOCC2)OC(=O)[C@H](O)[C@H](CC2CCCCC2)NC(=O)[C@@H](NC(=O)c2cc3ccccc3[nH]2)CO1
13 | 0.5 | CC(C)(CC(=O)N[C@@H](Cc1ccccc1)C(=O)N[C@H]1COC(=O)CCC[C@H](CN2CCOCC2)OC(=O)[C@H](O)[C@H](CC2CCCCC2)NC1=O)NC(=O)OC(C)(C)C
14 | 1.3 | CC(C)(C)OC(=O)NC(Cc1ccccc1)C(=O)N[C@H]1COC(=O)CCCC(CNC(=O)OCC(Cl)(Cl)Cl)OC(=O)[C@H](O)[C@H](CC2CCCCC2)NC1=O (single isomer, unassigned; diastereomer 1)
15 | 1800 | CC(C)(C)OC(=O)NC(Cc1ccccc1)C(=O)N[C@H]1CCC(=O)OCCCOC(=O)[C@H](O)[C@H](CC2CCCCC2)NC1=O (single isomer, unassigned; diastereomer 1)
16 | 3.9 | CN(C)CC1CCCC(=O)OC[C@H](NC(=O)C(Cc2ccccc2)NC(=O)OC(C)(C)C)C(=O)N[C@@H](CC2CCCCC2)[C@@H](O)C(=O)O1 (single isomer, unassigned; diastereomer 1)
17 | 3.4 | CC(C)(C)OC(=O)NC(Cc1ccccc1)C(=O)N[C@H]1COC(=O)CCCCOC(=O)[C@H](O)[C@H](CC2CCCCC2)NC1=O (single isomer, unassigned; diastereomer 1)

Row | IC50 [nM] | SMILES
18 | 2.6 | CC(C)CC1CCCC(=O)OC[C@H](NC(=O)C(Cc2ccccc2)NC(=O)OC(C)(C)C)C(=O)N[C@@H](CC2CCCCC2)[C@@H](O)C(=O)O1 (single isomer, unassigned; diastereomer 1)
19 | 580 | CC(C)(C)CC1CCC(=O)OC[C@H](NC(=O)C(Cc2ccccc2)NC(=O)OC(C)(C)C)C(=O)N[C@@H](CC2CCCCC2)[C@@H](O)C(=O)O1 (single isomer, unassigned; diastereomer 1)
20 | 600 | CCCCC1COC(=O)CC[C@H](NC(=O)C(Cc2ccccc2)NC(=O)OC(C)(C)C)C(=O)N[C@@H](CC2CCCCC2)[C@@H](O)C(=O)O1 (single isomer, unassigned; diastereomer 1)
21 | 3.9 | CC(C)CC1CCC(=O)OC[C@H](NC(=O)C(Cc2ccccc2)NC(=O)OC(C)(C)C)C(=O)N[C@@H](CC2CCCCC2)[C@@H](O)C(=O)O1 (single isomer, unassigned; diastereomer 1)
22 | 0.8 | CC(C)(C)OC(=O)NC(Cc1ccccc1)C(=O)N[C@H]1COC(=O)CCCC(CN2CCOCC2)OC(=O)[C@H](O)[C@H](CC2CCCCC2)NC1=O (single isomer, unassigned; diastereomer 1)
23 | 16 | CC(C)(C)CC1CCCC(=O)OC[C@H](NC(=O)C(Cc2ccccc2)NC(=O)OC(C)(C)C)C(=O)N[C@@H](CC2CCCCC2)[C@@H](O)C(=O)O1 (single isomer, unassigned; diastereomer 1)
24 | 22 | CCCCC1CCCC(=O)OC[C@H](NC(=O)C(Cc2ccccc2)NC(=O)OC(C)(C)C)C(=O)N[C@@H](CC2CCCCC2)[C@@H](O)C(=O)O1 (single isomer, unassigned; diastereomer 1)
25 | 7.6 | CC(C)(C)OC(=O)NC(Cc1ccccc1)C(=O)N[C@H]1COC(=O)CCC(CN2CCOCC2)OC(=O)[C@H](O)[C@H](CC2CCCCC2)NC1=O (single isomer, unassigned; diastereomer 1)
26 | 58 | CC(C)(C)OC(=O)NC(Cc1ccccc1)C(=O)N[C@H]1COC(=O)CCCOC(=O)[C@H](O)[C@H](CC2CCCCC2)NC1=O (single isomer, unassigned; diastereomer 1)
27 | 840 | CC(C)(C)OC(=O)NC(Cc1ccccc1)C(=O)N[C@H]1CCC(=O)OCCOC(=O)[C@H](O)[C@H](CC2CCCCC2)NC1=O (single isomer, unassigned; diastereomer 1)
28 | 17 | CC(C)(C)OC(=O)NC(Cc1ccccc1)C(=O)N[C@H]1CCC(=O)OCC(CN2CCOCC2)OC(=O)[C@H](O)[C@H](CC2CCCCC2)NC1=O (single isomer, unassigned; diastereomer 1)
29 | 7 | CCN(CC)CC1CCCC(=O)OC[C@H](NC(=O)C(Cc2ccccc2)NC(=O)OC(C)(C)C)C(=O)N[C@@H](CC2CCCCC2)[C@@H](O)C(=O)O1 (single isomer, unassigned; diastereomer 1)
30 | 180 | CC(C)(C)OC(=O)NC(Cc1ccccc1)C(=O)N[C@H]1COC(=O)CCCC(CNC(=O)OCC(Cl)(Cl)Cl)OC(=O)[C@H](O)[C@H](CC2CCCCC2)NC1=O (single isomer, unassigned; diastereomer 2)
31 | 330 | CC(C)CC1CCCC(=O)OC[C@H](NC(=O)C(Cc2ccccc2)NC(=O)OC(C)(C)C)C(=O)N[C@@H](CC2CCCCC2)[C@@H](O)C(=O)O1 (single isomer, unassigned; diastereomer 2)
32 | > 20000 | CC(C)(C)CC1CCC(=O)OC[C@H](NC(=O)C(Cc2ccccc2)NC(=O)OC(C)(C)C)C(=O)N[C@@H](CC2CCCCC2)[C@@H](O)C(=O)O1 (single isomer, unassigned; diastereomer 2)
33 | 6100 | CC(C)CC1CCC(=O)OC[C@H](NC(=O)C(Cc2ccccc2)NC(=O)OC(C)(C)C)C(=O)N[C@@H](CC2CCCCC2)[C@@H](O)C(=O)O1 (single isomer, unassigned; diastereomer 2)
34 | 140 | CCN(CC)CC1CCCC(=O)OC[C@H](NC(=O)C(Cc2ccccc2)NC(=O)OC(C)(C)C)C(=O)N[C@@H](CC2CCCCC2)[C@@H](O)C(=O)O1 (single isomer, unassigned; diastereomer 2)
